Experimental data taken from US9169241B2, “Quinolinyloxyphenylsulfonamides” (Max-Planck-Gesellschaft Zur Forderung der Wissenschaften …, priority 2009, dated 2015).
Read-outs that look alike come from different tables or passages of the source.

Experiments:
Hs578T [1] = assay: Matrigel outgrowth assay/branching assay; assay type: cell-based; details: Homo sapiens, Hs-578T; HS578T cell line; Table Ib; read-out: Total branching inhibition in Matrigel HS578T
How it was run: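 Invasive outgrowth into a 3 mg/ml Matrigel gel is judged from images taken after 48, 72 and 96 h of exposure to 3.125, 1.56 or 0.78 μM compound, with DMSO as control. Positive means total inhibition of branching.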

SF763 = assay: Cell vitality assay (ATP assay, CellTiter-Glo); assay type: cell-based; details: SF763, 72 h; Table IIa; read-out: IC50 ATP-Assay after 72 h SF763
How it was run: (§1)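 ATP-based luminescence (CellTiter-Glo) after 72 h exposure of 1000 cells/well to seven compound concentrations from 0.195 to 12.5 μM. IC50 defined as concentration reducing ATP to 50% of DMSO control.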

C8161 = assay: Cell vitality assay (ATP assay, CellTiter-Glo); assay type: cell-based; details: Homo sapiens; C8161, 72 h; Table IIa; read-out: IC50 ATP-Assay after 72 h C8161
How it was run: as §1

Hs578T [2] = assay: Cell vitality assay (ATP assay, CellTiter-Glo); assay type: cell-based; details: Homo sapiens, Hs-578T, 72 h
How it was run: as §1

SF126 = assay: Cell vitality assay (ATP assay, CellTiter-Glo); assay type: cell-based; details: Homo sapiens, SF-126
How it was run: as §1

A172 = assay: Cell vitality assay (ATP assay, CellTiter-Glo); assay type: cell-based; details: Homo sapiens, A 172; A172, 72 h; Table IIa; read-out: IC50 ATP-Assay after 72 h A172
How it was run: as §1

MDA-MB231 = assay: Cell vitality assay (ATP assay, CellTiter-Glo); assay type: cell-based; details: Homo sapiens, MDA-MB-231
How it was run: as §1

U138 = assay: Cell vitality assay (ATP assay, CellTiter-Glo); assay type: cell-based; details: U138, 72 h; Table IIa; read-out: IC50 ATP-Assay after 72 h U138
How it was run: as §1

U118 = assay: Cell vitality assay (ATP assay, CellTiter-Glo); assay type: cell-based
How it was run: as §1

cells = assay: Boyden chamber migration assay (Table VI); assay type: cell-based; details: Hs578T cells, 16 h migration
How it was run: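 Migration read-out is a count of fixed cells on the underside of an […] insert membrane after 16 h. Chemoattractant was medium with 10% FCS in the lower chamber; 20000 cells started in serum-free medium with 0.1% BSA above, and those left on top were removed by swab.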

indicated cell line = assay: Wound healing migration assay (Table IV); assay type: cell-based; details: compounds at 12.5, 6.25, 3.125 μM, 48 h-72 h
How it was run: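 Compound exposure at 12.5, 6.25 and 3.125 μM, with DMSO control, on scratch-wounded monolayers (150000 cells/24 well, overnight). Wound closure imaged by microscopy, fixed with crystal violet after 48 h or 72 h depending on cell line; IC50 is the concentration giving 50% wound size between t0 and t48/t72.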

[3] = HS578T cell line, Table Ib, read-out: IC50 ATP-Assay HS578T after 72 h
[4] = Hs578T, Table IIa, read-out: IC50 ATP-Assay after 72 h Hs578T
[5] = SF126, 72 h, Table IIa, read-out: IC50 ATP-Assay after 72 h SF126
[6] = MDA-MB231, 72 h, Table IIa, read-out: IC50 ATP-Assay after 72 h MDA-MB231
[7] = U118, 72 h, Table IIa, read-out: IC50 ATP-Assay after 72 h U118
[8] = Homo sapiens, A 172, A172 cells, read-out: IC50 Wound healing Assay A172
[9] = Homo sapiens, SF-126, SF126 cells, read-out: IC50 Wound healing Assay SF126
[10] = Homo sapiens, C8161 cells, read-out: IC50 Wound healing Assay C8161
[11] = SF763 cells, read-out: IC50 Wound healing Assay SF763
[12] = U118 cells, read-out: IC50 Wound healing Assay U118

| IC50 (MDA-MB231; [6]) [µM] | IC50 (cells; Homo sapiens, Hs-578T, 16 h) [µM] | melting point [°C] | IC50 (indicated cell line; [8]) [µM] | IC50 (indicated cell line; [9]) [µM] | IC50 (indicated cell line; [10]) [µM] | IC50 (indicated cell line; [11]) [µM] | IC50 (indicated cell line; [12]) [µM] | Structure (SMILES) | IC50 (Hs578T [1]) [µM] | IC50 (SF763) [µM] | IC50 (C8161) [µM] | IC50 (Hs578T [2]; [3]) [µM] | IC50 (Hs578T [2]; [4]) [µM] | IC50 (SF126; [5]) [µM] | IC50 (A172) [µM] | IC50 (U138) [µM] | IC50 (U118; [7]) [µM] | further results |
| --- | --- | --- | --- | --- | --- | --- | --- | --- | --- | --- | --- | --- | --- | --- | --- | --- | --- | --- |
| 12.5 to 50 | 5 to 50 | 103 to 105 | ≤ 12.5 | ≤ 12.5 | 12.5 to 50 | ≤ 12.5 | ≤ 12.5 | COc1cc2c(Oc3ccc(NS(=O)(=O)c4ccccc4C(F)(F)F)cc3Cl)ccnc2cc1OCCCN1CCN(C)CC1 [Example 87, N-(3-Chloro-4-{6-methoxy-7-[3-(4-methyl-piperazin-1-yl)-propoxy]-quinolin-4-yloxy}-phenyl)-2-trifluoromethyl-benzenesulfonamide] | ≤ 10 | ≤ 12.5 | ≤ 12.5 | 12.5 to 50 | 12.5 to 50 | ≤ 12.5 | ≤ 12.5 | ≤ 12.5 | ≤ 12.5 | IC50 (cells): ≤ 5 µM |
| 12.5 to 50 | ≤ 5 | 118 to 120 | ≤ 12.5 | ≤ 12.5 | ≤ 12.5 | ≤ 12.5 | ≤ 12.5 | COc1cc2c(Oc3ccc(NS(=O)(=O)c4ccc(F)cc4F)cc3F)ccnc2cc1OCCCN1CCCC(C)C1 (centres unmarked) [Example 47, 2,4-Difluoro-N-(3-fluoro-4-{6-methoxy-7-[3-(3-methyl-piperidin-1-yl)-propoxy]-quinolin-4-yloxy}-phenyl)-benzenesulfonamide] | ≤ 10 | ≤ 12.5 | 12.5 to 50 | ≤ 12.5 | ≤ 12.5 | ≤ 12.5 | ≤ 12.5 | ≤ 12.5 | ≤ 12.5 |  |
| ≤ 12.5 | ≤ 5 | 125 to 127 |  |  | 12.5 to 50 | ≤ 12.5 |  | COc1cc2c(Oc3ccc(NS(=O)(=O)c4cccc(C#N)c4)cc3F)ccnc2cc1OCCCN1CCCC(C)C1 (centres unmarked) [Example 41, 3-Cyano-N-(3-fluoro-4-{6-methoxy-7-[3-(3-methyl-piperidin-1-yl)-propoxy]-quinolin-4-yloxy}-phenyl)-benzenesulfonamide] | ≤ 10 | ≤ 12.5 | ≤ 12.5 |  | ≤ 12.5 | 12.5 to 50 |  | ≤ 12.5 | ≤ 12.5 |  |
| ≤ 12.5 | 5 to 50 | 115 to 118 | ≤ 12.5 | ≤ 12.5 | ≤ 12.5 | 12.5 to 50 | ≤ 12.5 | COc1cc2c(Oc3ccc(NS(=O)(=O)c4ccccc4Cl)cc3F)ccnc2cc1OCCCN1CCCC(C)C1 (centres unmarked) [Example 38, 2-Chloro-N-(3-fluoro-4-{6-methoxy-7-[3-(3-methyl-piperidin-1-yl)-propoxy]-quinolin-4-yloxy}-phenyl)-benzenesulfonamide] | ≤ 10 | ≤ 12.5 | ≤ 12.5 | 12.5 to 50 | 12.5 to 50 | ≤ 12.5 | ≤ 12.5 | ≤ 12.5 | ≤ 12.5 |  |
| ≤ 12.5 | ≤ 5 | 149 to 151 |  |  | 12.5 to 50 | 12.5 to 50 |  | COc1cc2c(Oc3ccc(NS(=O)(=O)c4cc(C)ccc4F)cc3F)ccnc2cc1OCCCN1CCCC(C)C1 (centres unmarked) [Example 55] | ≤ 10 | 12.5 to 50 | ≤ 12.5 | 12.5 to 50 | 12.5 to 50 | ≤ 12.5 |  | 12.5 to 50 | 12.5 to 50 |  |

The remaining lines, values behind:

| Structure (SMILES) | IC50 (MDA-MB231; [6]) [µM] | IC50 (cells; Homo sapiens, Hs-578T, 16 h) [µM] | melting point [°C] | IC50 (indicated cell line; [8]) [µM] | IC50 (indicated cell line; [9]) [µM] | IC50 (indicated cell line; [10]) [µM] | IC50 (indicated cell line; [11]) [µM] | IC50 (indicated cell line; [12]) [µM] | IC50 (Hs578T [1]) [µM] | IC50 (SF763) [µM] | IC50 (C8161) [µM] | IC50 (Hs578T [2]; [3]) [µM] | IC50 (Hs578T [2]; [4]) [µM] | IC50 (SF126; [5]) [µM] | IC50 (A172) [µM] | IC50 (U138) [µM] | IC50 (U118; [7]) [µM] | further results |
| --- | --- | --- | --- | --- | --- | --- | --- | --- | --- | --- | --- | --- | --- | --- | --- | --- | --- | --- |
| COc1cc2c(Oc3ccc(NS(=O)(=O)c4cccc(Oc5ccccc5)c4)cc3F)ccnc2cc1OCCCN1CCCCC1 [Example 10, N-{3-Fluoro-4-[6-methoxy-7-(3-piperidin-1-yl-propoxy)-quinolin-4-yloxy]-phenyl}-3-phenoxy-benzenesulfonamide] | ≤ 12.5 | ≤ 5 | 146 to 147 | ≤ 12.5 | ≤ 12.5 | ≤ 12.5 | ≤ 12.5 | ≤ 12.5 | ≤ 10 | ≤ 12.5 | ≤ 12.5 | 12.5 to 50 | 12.5 to 50 | ≤ 12.5 | ≤ 12.5 | ≤ 12.5 | ≤ 12.5 |  |
| COc1cc2c(Oc3ccc(NS(=O)(=O)c4ccccc4C(F)(F)F)cc3F)ccnc2cc1OCCCN1CCCCC1C (centres unmarked) [Example 99, N-(3-Fluoro-4-{6-methoxy-7-[3-(2-methyl-piperidin-1-yl)-propoxy]-quinolin-4-yloxy}-phenyl)-2-trifluoromethyl-benzenesulfonamide] | ≤ 12.5 |  | 115 to 116 | ≤ 12.5 | ≤ 12.5 | 12.5 to 50 | ≤ 12.5 | ≤ 12.5 | ≤ 10 | ≤ 12.5 | 12.5 to 50 | ≤ 12.5 | ≤ 12.5 | ≤ 12.5 | ≤ 12.5 | ≤ 12.5 | ≤ 12.5 |  |
| COc1cc2c(Oc3ccc(NS(=O)(=O)c4cc(F)ccc4F)cc3F)ccnc2cc1OCCCN1CCCCC1 [Example 1, 2,5-Difluoro-N-{3-fluoro-4-[6-methoxy-7-(3-piperidin-1-yl-propoxy)-quinolin-4-yloxy]-phenyl}-benzenesulfonamide] | 12.5 to 50 |  | 206 to 208 | ≤ 12.5 | ≤ 12.5 | ≤ 12.5 | ≤ 12.5 | ≤ 12.5 | ≤ 10 | ≤ 12.5 | 12.5 to 50 | ≤ 12.5 | 12.5 to 50 | ≤ 12.5 | ≤ 12.5 | ≤ 12.5 | ≤ 12.5 | IC50 (SF126; cell vitality assay, SF126, Table IIb, read-out: IC50 SF126): ≤ 12.5 µM; IC50 (MDA-MB231; cell vitality assay, MDA-MB231, Table IIc, read-out: IC50 MDA-MB231): ≤ 12.5 µM; IC50 (U118; cell vitality assay, U118, Table IIc, read-out: IC50 U118): ≤ 12.5 µM |
| COc1cc2c(Oc3ccc(NS(=O)(=O)c4ccccc4[N+](=O)[O-])cc3F)ccnc2cc1OCCCN1CCCCC1 [Example 7, N-{3-Fluoro-4-[6-methoxy-7-(3-piperidin-1-yl-propoxy)-quinolin-4-yloxy]-phenyl}-2-nitro-benzenesulfonamide] | ≤ 12.5 | ≤ 5 | 113 to 116 | ≤ 12.5 | ≤ 12.5 | ≤ 12.5 | ≤ 12.5 | ≤ 12.5 | 10 to 25 | ≤ 12.5 | ≤ 12.5 | ≤ 12.5 | ≤ 12.5 | 12.5 to 50 | 12.5 to 50 | ≤ 12.5 | 12.5 to 50 |  |
| COc1cc2c(Oc3ccc(NS(=O)(=O)c4ccccc4OC)cc3F)ccnc2cc1OCCCN1CCN(C)CC1 [Example 33, N-(3-Fluoro-4-{6-methoxy-7-[3-(4-methyl-piperazin-1-yl)-propoxy]-quinolin-4-yloxy}-phenyl)-2-methoxy-benzenesulfonamide] | ≤ 12.5 | ≤ 5 | 168 to 170 |  |  | ≤ 12.5 | 12.5 to 50 |  | ≤ 10 | ≤ 12.5 | ≤ 12.5 |  | ≤ 12.5 | ≤ 12.5 |  | ≤ 12.5 | ≤ 12.5 |  |
